Test results: US8796327B2, “Method for inhibiting production of cytokines of T helper cell type II and/or inhibiting production of chemokines using brazilin” (China Medical University, priority 2010, dated 2014)

Key:
EL-4 T lymphoma cells = assay: Trypan blue exclusion assay, cell viability; assay type: cell-based, mouse; settings: for Cell viability (%): EL-4 cells
Method: First, in an incubator containing 5 vol % of CO2 at 37° C., EL-4 mouse T lymphoma cells (commercially available from ATCC, Manassas, Va., America) were cultured in the DMEM culture medium (containing 10 wt % of thermally deactivated FBS), and were sub-cultured at a ratio of 1:3.
Then, at a density of 5×10^5 counts/ml, the T lymphoma cells were bred in a six-well culture dish, and at the 0th minute, brazilin of different concentrations (0.3, 1, 3, 10, or 30 micromole (μM)) was added into the cell culture solution at an amount of 1 μl/ml-cell culture solution. Then, the cells were put into the incubator to be cultured therein. […] During the process of cell culture, the trypan blue exclusion assay was employed to observe effect of the brazilin on the cell viability, results of which are shown in Table 1 and FIG. 1.

c-maf mRNA = assay: Real-time PCR of c-maf mRNA in EL-4 T lymphoma cells; assay type: cell-based, mouse; settings: for Expression level of c-maf mRNA: PMA + cAMP stimulated EL-4 cells, corrected to HPRT
Method: (§1) Then, at a density of 5×10^5 counts/ml, the T lymphoma cells were bred in a six-well culture dish, and at the 0th minute, brazilin of different concentrations (0.3, 1, 3, 10, or 30 micromole (μM)) was added into the cell culture solution at an amount of 1 μl/ml-cell culture solution. Then, the cells were put into the incubator to be cultured therein. 30 minutes later, at an amount of 1 μl/ml-cell culture solution, 5 μg/ml PMA and cAMP at a 250 mmol concentration were added to the cell culture solution to stimulate the expression of IL-4 and IL-5 of the T lymphoma cells. During the process of cell culture, the trypan blue exclusion assay was employed to observe effect of the brazilin on the cell viability, results of which are shown in Table 1 and FIG. 1.
(§2) Expression of mRNA of IL-4, IL-5, GATA-3, c-maf, and T-bet were analyzed in a quantitative way through real-time polymerase chain reaction (PCR) by extracting RNA in the cells obtained in Experiment A (using an RNA purifying kit), converting the RNA into cDNA through reverse transcription, and using an ABI PRISM 7700 sequence detector (Applied Biosystems, Foster City, Calif., America) to analyze the gene expression of mRNA. The PCR was carried out under the following conditions: 50° C., 2 minutes; 95° C., 10 minutes; 60° C., 1 minute; then repeating this cycle forty times. A threshold cycle (or referred to as Ct) was used to represent the expression level of each gene, and an expression level of hypoxanthine-guanine phosphoribosy transferase (HPRT) genes of the endogenous control group was used for correction of the expression level of mRNA.

T-bet mRNA = assay: Real-time PCR of T-bet mRNA in EL-4 T lymphoma cells; assay type: cell-based, mouse; settings: for Expression level of T-bet mRNA: PMA + cAMP stimulated EL-4 cells, corrected to HPRT
Method: as §1, §2

IFN-γ = assay: ELISA of IFN-γ in bronochial alveolar lavage fluid, mice with asthma (OVA); assay type: in vivo, BALB/c mice; settings: for IFN-γ concentration (pico-gram/ml): i.p. or i.t., OVA-sensitized BALB/c mice
Method: In Example 2, mice with asthma were used to conduct in vivo experiments, and ovalbumin (OVA) was used as an allergen.
The mice were sensitized (or challenged) according to the steps shown in FIG. 9 (see Lee et al., Lentiviral-mediated GATA-3 RNAi decreases allergic airway inflammation and hyperresponsiveness. Molecular Therapy, 2008; 16:60-65, which is incorporated herein in its entirety by reference). First, 50 μg OVA (using 2 mg alumina (Alum, Alumlmuject, Pierce Chemical, Rockford, Ill., USA) as an adjuvant) was injected into six to eight-week-old BALB/c female mice (from National Laboratory Animal Center, Taiwan) by intraperitoneal injection (i.p.). At 0th, 14th, and 28th day, the mice were injected with OVA at the same dosage. Before the administration of OVA at the forty-first and the forty-second days, different dosages of brazilin (high dose: 430 μg/mice; low dose: 43 μg/mice) were administrated to the mice by intraperitoneal injection (i.p.) or intratracheal instillation (i.t.). During the fortieth to the forty-second days, 100 μg OVA was dissolved in 40 μl PBS, and was administrated to the mice by intranasal instillation (i.n.) (once everyday, for three days). At the forty-third day, airway hyperresponsiveness of the mice was observed. […]
In Experiment D, after 24 hours from the last administration of OVA into the noses of the mice, the mice were sacrificed, and the blood was collected from the orbital cavities of the mice. […] Cells obtained after the centrifugation were re-suspended in a 1 ml HBSS buffer solution, and the total cell number was counted with a hemocytometer.
The bronochial alveolar lavage fluid collected in Experiment E was centrifuged at 4° C. and with a revolution speed of 400 g for 10 minutes. After the supernatant was collected, the expression of eotaxin, IL-4, IL-5, and IFN-γ was analyzed with an ELISA kit (R&D Systems, Inc., USA). […]

GATA-3 mRNA = assay: Real-time PCR of GATA-3 mRNA in EL-4 T lymphoma cells; assay type: cell-based, mouse; settings: for Expression level of GATA-3 mRNA: PMA + cAMP stimulated EL-4 cells, corrected to HPRT
Method: as §1, §2

## Oc1ccc2c(c1)OC[C@]1(O)Cc3cc(O)c(O)cc3[C@H]21 [brazilin]
EL-4 T lymphoma cells; 0.3-30 μM, result in words
  effect on the growth of EL-4 T lymphoma cells: no effect
EL-4 T lymphoma cells; EL-4 T lymphoma cells, 0.3-30 μM, result in words
  cytotoxicity: no cytotoxicity
EL-4 T lymphoma cells; brazilin 0.3 μM, no PMA + cAMP
  Cell viability (%): 102.8 ± 6.895%
EL-4 T lymphoma cells; brazilin 0.3 μM, with PMA + cAMP
  Cell viability (%): 115.9 ± 6.968%
EL-4 T lymphoma cells; brazilin 1 μM, no PMA + cAMP
  Cell viability (%): 106.5 ± 1.190%
EL-4 T lymphoma cells; brazilin 1 μM, with PMA + cAMP
  Cell viability (%): 107.4 ± 3.829%
EL-4 T lymphoma cells; brazilin 3 μM, no PMA + cAMP
  Cell viability (%): 101.5 ± 4.226%
EL-4 T lymphoma cells; brazilin 3 μM, with PMA + cAMP
  Cell viability (%): 109.0 ± 3.764%
EL-4 T lymphoma cells; brazilin 10 μM, no PMA + cAMP
  Cell viability (%): 111.5 ± 5.126%
EL-4 T lymphoma cells; brazilin 10 μM, with PMA + cAMP
  Cell viability (%): 100.8 ± 3.257%
EL-4 T lymphoma cells; brazilin 30 μM, no PMA + cAMP
  Cell viability (%): 98.17 ± 8.439%
EL-4 T lymphoma cells; brazilin 30 μM, with PMA + cAMP
  Cell viability (%): 104.7 ± 2.495%
c-maf mRNA; EL-4 cells, result in words
  expression of mRNA of transcription factor c-maf: inhibited
c-maf mRNA; brazilin 0.3 μM
  Expression level of c-maf mRNA: 3.388 ± 0.2410
c-maf mRNA; brazilin 1 μM
  Expression level of c-maf mRNA: 3.318 ± 0.1177
c-maf mRNA; brazilin 3 μM
  Expression level of c-maf mRNA: 2.846 ± 0.2632
c-maf mRNA; brazilin 10 μM
  Expression level of c-maf mRNA: 1.826 ± 0.6278
c-maf mRNA; brazilin 30 μM
  Expression level of c-maf mRNA: 1.302 ± 0.1868
T-bet mRNA; EL-4 cells, result in words
  expression of mRNA of transcription factor T-bet: did not inhibit
T-bet mRNA; brazilin 0.3 μM
  Expression level of T-bet mRNA: 1.073 ± 0.1762
T-bet mRNA; brazilin 1 μM
  Expression level of T-bet mRNA: 1.036 ± 0.1666
T-bet mRNA; brazilin 3 μM
  Expression level of T-bet mRNA: 1.052 ± 0.09226
T-bet mRNA; brazilin 10 μM
  Expression level of T-bet mRNA: 1.068 ± 0.1171
T-bet mRNA; brazilin 30 μM
  Expression level of T-bet mRNA: 1.054 ± 0.05147
IFN-γ; BALB/c mice, result in words
  effect on IFN-γ cytokine of Th1 cells: no effect
IFN-γ; High dose (430 μg/mice)
  IFN-γ concentration (pico-gram/ml): 4.288 ± 0.868 pico-gram/ml
IFN-γ; Low dose (43 μg/mice)
  IFN-γ concentration (pico-gram/ml): 3.598 ± 1.218 pico-gram/ml
GATA-3 mRNA; EL-4 cells, result in words
  expression of mRNA of transcription factor GATA-3: inhibited
GATA-3 mRNA; brazilin 0.3 μM
  Expression level of GATA-3 mRNA: 3.960 ± 0.1234
GATA-3 mRNA; brazilin 1 μM
  Expression level of GATA-3 mRNA: 3.036 ± 0.5622
GATA-3 mRNA; brazilin 3 μM
  Expression level of GATA-3 mRNA: 2.663 ± 0.6056
GATA-3 mRNA; brazilin 10 μM
  Expression level of GATA-3 mRNA: 1.812 ± 0.1538
GATA-3 mRNA; brazilin 30 μM
  Expression level of GATA-3 mRNA: 1.434 ± 0.2530
